{"source": "paper PMC10006169", "about": "“A phase I trial of LXS196, a protein kinase C (PKC) inhibitor, for metastatic uveal melanoma” (British Journal of Cancer, 2023)", "system": "patients with MUM", "experiment": "Adverse events suspected to be study drug related (NCI-CTCAE v4.03)", "assay_type": "in vivo, human", "method": "Routine safety assessments, including laboratory assessments, physical examinations, vital signs and electrocardiograms (ECGs), were conducted at regular intervals throughout the study and more frequently as needed following patient assessment by the treating physician. Adverse events (AEs) were assessed continuously according to the National Cancer Institute Common Terminology Criteria for Adverse Events (NCI-CTCAE) v4.03.", "data": [{"smiles": "CC1(N)CCN(c2cccnc2NC(=O)c2nc(-c3ncccc3C(F)(F)F)cnc2N)CC1", "note": "[LXS196]", "values": [{"measurement": "Nausea, grade ≥3", "setting": "300 mg QD", "result": "0 n (%)"}, {"measurement": "Patients with ≥1 AE, all grades", "setting": "300 mg QD", "result": "14 (93.3) n (%)"}, {"measurement": "Patients with ≥1 AE, grade ≥3", "setting": "300 mg QD", "result": "2 (13.3) n (%)"}, {"measurement": "Rash, all grades", "setting": "300 mg QD", "result": "3 (20.0) n (%)"}, {"measurement": "Rash, grade ≥3", "setting": "300 mg QD", "result": "0 n (%)"}, {"measurement": "Vomiting, all grades", "setting": "300 mg QD", "result": "5 (33.3) n (%)"}, {"measurement": "Vomiting, grade ≥3", "setting": "300 mg QD", "result": "0 n (%)"}, {"measurement": "ALT increased, all grades", "setting": "500 mg QD", "result": "3 (27.3) n (%)"}, {"measurement": "ALT increased, grade ≥3", "setting": "500 mg QD", "result": "1 (9.1) n (%)"}, {"measurement": "AST increased, all grades", "setting": "500 mg QD", "result": "4 (36.4) n (%)"}, {"measurement": "AST increased, grade ≥3", "setting": "500 mg QD", "result": "1 (9.1) n (%)"}, {"measurement": "Asthenia, all grades", "setting": "500 mg QD", "result": "2 (18.2) n (%)"}, {"measurement": "Asthenia, grade ≥3", "setting": "500 mg QD", "result": "0 n (%)"}, {"measurement": "Blood creatinine increased, all grades", "setting": "500 mg QD", "result": "0 n (%)"}, {"measurement": "Blood creatinine increased, grade ≥3", "setting": "500 mg QD", "result": "0 n (%)"}, {"measurement": "Constipation, all grades", "setting": "500 mg QD", "result": "0 n (%)"}, {"measurement": "Constipation, grade ≥3", "setting": "500 mg QD", "result": "0 n (%)"}, {"measurement": "Diarrhoea, all grades", "setting": "500 mg QD", "result": "4 (36.4) n (%)"}, {"measurement": "Diarrhoea, grade ≥3", "setting": "500 mg QD", "result": "0 n (%)"}, {"measurement": "Dry skin, all grades", "setting": "500 mg QD", "result": "0 n (%)"}, {"measurement": "Dry skin, grade ≥3", "setting": "500 mg QD", "result": "0 n (%)"}, {"measurement": "Fatigue, all grades", "setting": "500 mg QD", "result": "0 n (%)"}, {"measurement": "Fatigue, grade ≥3", "setting": "500 mg QD", "result": "0 n (%)"}, {"measurement": "Hypotension, all grades", "setting": "500 mg QD", "result": "4 (36.4) n (%)"}, {"measurement": "Hypotension, grade ≥3", "setting": "500 mg QD", "result": "3 (27.3) n (%)"}, {"measurement": "Nausea, all grades", "setting": "500 mg QD", "result": "8 (72.7) n (%)"}, {"measurement": "Nausea, grade ≥3", "setting": "500 mg QD", "result": "0 n (%)"}, {"measurement": "Patients with ≥1 AE, all grades", "setting": "500 mg QD", "result": "10 (90.9) n (%)"}, {"measurement": "Patients with ≥1 AE, grade ≥3", "setting": "500 mg QD", "result": "4 (36.4) n (%)"}, {"measurement": "Rash, all grades", "setting": "500 mg QD", "result": "0 n (%)"}, {"measurement": "Rash, grade ≥3", "setting": "500 mg QD", "result": "0 n (%)"}, {"measurement": "Vomiting, all grades", "setting": "500 mg QD", "result": "5 (45.5) n (%)"}, {"measurement": "Vomiting, grade ≥3", "setting": "500 mg QD", "result": "0 n (%)"}, {"measurement": "ALT increased, all grades", "setting": "800 mg QD", "result": "0 n (%)"}, {"measurement": "ALT increased, grade ≥3", "setting": "800 mg QD", "result": "0 n (%)"}, {"measurement": "AST increased, all grades", "setting": "800 mg QD", "result": "0 n (%)"}, {"measurement": "AST increased, grade ≥3", "setting": "800 mg QD", "result": "0 n (%)"}, {"measurement": "Asthenia, all grades", "setting": "800 mg QD", "result": "0 n (%)"}, {"measurement": "Asthenia, grade ≥3", "setting": "800 mg QD", "result": "0 n (%)"}, {"measurement": "Blood creatinine increased, all grades", "setting": "800 mg QD", "result": "0 n (%)"}, {"measurement": "Blood creatinine increased, grade ≥3", "setting": "800 mg QD", "result": "0 n (%)"}, {"measurement": "Constipation, all grades", "setting": "800 mg QD", "result": "0 n (%)"}, {"measurement": "Constipation, grade ≥3", "setting": "800 mg QD", "result": "0 n (%)"}, {"measurement": "Diarrhoea, all grades", "setting": "800 mg QD", "result": "1 (100) n (%)"}, {"measurement": "Diarrhoea, grade ≥3", "setting": "800 mg QD", "result": "0 n (%)"}, {"measurement": "Dry skin, all grades", "setting": "800 mg QD", "result": "0 n (%)"}, {"measurement": "Dry skin, grade ≥3", "setting": "800 mg QD", "result": "0 n (%)"}, {"measurement": "Fatigue, all grades", "setting": "800 mg QD", "result": "0 n (%)"}, {"measurement": "Fatigue, grade ≥3", "setting": "800 mg QD", "result": "0 n (%)"}, {"measurement": "Hypotension, all grades", "setting": "800 mg QD", "result": "1 (100) n (%)"}, {"measurement": "Hypotension, grade ≥3", "setting": "800 mg QD", "result": "1 (100) n (%)"}, {"measurement": "Nausea, all grades", "setting": "800 mg QD", "result": "1 (100) n (%)"}, {"measurement": "Nausea, grade ≥3", "setting": "800 mg QD", "result": "0 n (%)"}, {"measurement": "Patients with ≥1 AE, all grades", "setting": "800 mg QD", "result": "1 (100) n (%)"}, {"measurement": "Patients with ≥1 AE, grade ≥3", "setting": "800 mg QD", "result": "1 (100) n (%)"}, {"measurement": "Rash, all grades", "setting": "800 mg QD", "result": "0 n (%)"}, {"measurement": "Rash, grade ≥3", "setting": "800 mg QD", "result": "0 n (%)"}, {"measurement": "Vomiting, all grades", "setting": "800 mg QD", "result": "0 n (%)"}, {"measurement": "Vomiting, grade ≥3", "setting": "800 mg QD", "result": "0 n (%)"}, {"measurement": "ALT increased, all grades", "setting": "1000 mg QD", "result": "1 (25.0) n (%)"}, {"measurement": "ALT increased, grade ≥3", "setting": "1000 mg QD", "result": "0 n (%)"}, {"measurement": "AST increased, all grades", "setting": "1000 mg QD", "result": "0 n (%)"}, {"measurement": "AST increased, grade ≥3", "setting": "1000 mg QD", "result": "0 n (%)"}, {"measurement": "Asthenia, all grades", "setting": "1000 mg QD", "result": "0 n (%)"}, {"measurement": "Asthenia, grade ≥3", "setting": "1000 mg QD", "result": "0 n (%)"}, {"measurement": "Blood creatinine increased, all grades", "setting": "1000 mg QD", "result": "0 n (%)"}, {"measurement": "Blood creatinine increased, grade ≥3", "setting": "1000 mg QD", "result": "0 n (%)"}, {"measurement": "Constipation, all grades", "setting": "1000 mg QD", "result": "0 n (%)"}, {"measurement": "Constipation, grade ≥3", "setting": "1000 mg QD", "result": "0 n (%)"}, {"measurement": "Diarrhoea, all grades", "setting": "1000 mg QD", "result": "4 (100) n (%)"}, {"measurement": "Diarrhoea, grade ≥3", "setting": "1000 mg QD", "result": "0 n (%)"}, {"measurement": "Dry skin, all grades", "setting": "1000 mg QD", "result": "1 (25.0) n (%)"}, {"measurement": "Dry skin, grade ≥3", "setting": "1000 mg QD", "result": "0 n (%)"}, {"measurement": "Fatigue, all grades", "setting": "1000 mg QD", "result": "3 (75.0) n (%)"}, {"measurement": "Fatigue, grade ≥3", "setting": "1000 mg QD", "result": "0 n (%)"}, {"measurement": "Hypotension, all grades", "setting": "1000 mg QD", "result": "2 (50.0) n (%)"}, {"measurement": "Hypotension, grade ≥3", "setting": "1000 mg QD", "result": "1 (25.0) n (%)"}, {"measurement": "Nausea, all grades", "setting": "1000 mg QD", "result": "4 (100) n (%)"}, {"measurement": "Nausea, grade ≥3", "setting": "1000 mg QD", "result": "0 n (%)"}, {"measurement": "Patients with ≥1 AE, all grades", "setting": "1000 mg QD", "result": "4 (100) n (%)"}, {"measurement": "Patients with ≥1 AE, grade ≥3", "setting": "1000 mg QD", "result": "2 (50.0) n (%)"}, {"measurement": "Rash, all grades", "setting": "1000 mg QD", "result": "0 n (%)"}, {"measurement": "Rash, grade ≥3", "setting": "1000 mg QD", "result": "0 n (%)"}, {"measurement": "Vomiting, all grades", "setting": "1000 mg QD", "result": "0 n (%)"}, {"measurement": "Vomiting, grade ≥3", "setting": "1000 mg QD", "result": "0 n (%)"}, {"measurement": "ALT increased, all grades", "setting": "All BID", "result": "8 (26.7) n (%)"}, {"measurement": "ALT increased, grade ≥3", "setting": "All BID", "result": "2 (6.7) n (%)"}, {"measurement": "AST increased, all grades", "setting": "All BID", "result": "6 (20.0) n (%)"}, {"measurement": "AST increased, grade ≥3", "setting": "All BID", "result": "2 (6.7) n (%)"}, {"measurement": "Asthenia, all grades", "setting": "All BID", "result": "7 (23.3) n (%)"}, {"measurement": "Asthenia, grade ≥3", "setting": "All BID", "result": "0 n (%)"}, {"measurement": "Blood creatinine increased, all grades", "setting": "All BID", "result": "5 (16.7) n (%)"}, {"measurement": "Blood creatinine increased, grade ≥3", "setting": "All BID", "result": "0 n (%)"}, {"measurement": "Constipation, all grades", "setting": "All BID", "result": "3 (10.0) n (%)"}, {"measurement": "Constipation, grade ≥3", "setting": "All BID", "result": "0 n (%)"}, {"measurement": "Diarrhoea, all grades", "setting": "All BID", "result": "16 (53.3) n (%)"}, {"measurement": "Diarrhoea, grade ≥3", "setting": "All BID", "result": "1 (3.3) n (%)"}]}]}
